# Data from patent publication US7405230B2, “Phosphodiesterase 4 inhibitors, including N-substituted aniline and diphenylamine analogs” (Memory Pharmaceuticals Corporation, priority 2002, dated 2008).
# Key:
# Rats [1] = test: Passive avoidance in rats, an in vivo test for learning and memory (reversal of MK-801 amnesia); design: species or system rat (Male Spraque-Dawley (Harlan)); conditions: MK-801 0.1 mg/kg pretreatment, 24 hours after electric shock, compared to the vehicle (p<0.001)
# Method: The test was performed as previously described (Zhang, H.-T., Crissman, A. M., Dorairaj, N. R., Chandler, L. J., and O'Donnell, J. M., Neuropsychopharmacology, 2000, 23, 198-204.). The apparatus (Model E10-16SC, Coulbourn Instruments, Allentown, Pa.) consisted of a two-compartment chamber with an illuminated compartment connected to a darkened compartment by a guillotine door. The floor of the darkened compartment consisted of stainless steel rods through which an electric foot-shock could be delivered from a constant current source. All experimental groups were first habituated to the apparatus the day before the start of the experiment. […] The latency for entering the darkened compartment was recorded. […] Twenty-four hours later, the rat was administered 0.1 mg/kg MK-801 or saline, 30 minutes prior to the injection of saline or test compound (dosed from […], which was 30 minutes before the retention test started. The rat was again placed in the illuminated compartment with the guillotine door open. The latency for entering the darkened compartment was recorded for up to 180 seconds, at which time the trial was terminated.
# (§1) All data were analyzed by analyses of variance (ANOVA); individual comparisons were made using Kewman-Keuls tests. […]
# Rats [2] = test: Radial arm maze task in rats, an in vivo test for learning and memory (reversal of MK-801 amnesia); design: species or system rat (male Spraque-Dawley (Harlan)); conditions: MK-801 0.1 mg/kg, i.p., compared to control (p<0.01)
# Method: The test was performed as previously described (Zhang, H.-T., Crissman, A. M., Dorairaj, N. R., Chandler, L. J., and O'Donnell, J. M., Neuropsychopharmacology, 2000, 23, 198-204.). Five days after initial housing, rats (male Spraque-Dawley (Harlan) weighing 250 to 350 g) were placed in the eight-arm radial maze (each arm was 60×10×12 cm high; the maze was elevated 70 cm above the floor) for acclimation for two days. Rats were then placed individually in the center of the maze for 5 minutes with food pellets placed close to the food wells, and then, the next day, in the wells at the end of the arms; 2 sessions a day were conducted. Next, four randomly selected arms were then baited with one pellet of food each. The rat was restricted to the center platform (26 cm in diameter) for 15 seconds and then allowed to move freely throughout the maze until it collected all pellets of food or 10 minutes passed, whichever came first. Four parameters were recorded: 1) working memory errors, i.e., entries into baited arms that had already been visited during the same trial; 2) reference memory errors, i.e., entries into unbaited arms; 3) total arm entries; and 4) the test duration (seconds), i.e., the time spent in the collection of all the pellets in the maze. […]
# as §1
smiles,measurement,setting,value
C[C@]12N[C@H](Cc3ccccc31)c1ccccc12 [MK-801],Latency for entering the darkened compartment,Rats [1],markedly reduced this latency
same,Frequencies of working and reference memory errors,Rats [2],increased the frequencies of both working and reference memory errors
